Reference: patent EP0530016B1, “Piperidine derivative and pharmaceutical composition containing it” (Ajinomoto Co., Inc., priority 1991, dated 1993)
pIC50: −log10 of the molar value.

Assays:
[1] = tested on: platelet aggregation induced by a combination of ADP and serotonin; test: Inhibition of the increased platelet aggregation caused by serotonin in platelet rich plasma; format: cell-based; conditions: Oryctolagus cuniculus; rabbit platelet rich plasma; ADP (1.5»M) and serotonin (5»M); 50% inhibition of the increased platelet aggregation caused by serotonin
Procedure: Blood was obtained from rabbit and was treated with 3.8% sodium citrate. Platelet rich plasma (PRP) was prepared by centrifugation at 1200 rpm for 10 min at room temperature. The platelet aggregation induced by adenosine diphosphate (ADP) (1.5»M) and by a combination of ADP (1.5»M) and serotonin (5»M) was measured. Then the concentration of piperidine derivative required to produce 50% inhibition of the increased platelet aggregation caused by serotonin compared with the control was calculated as IC50.

[2] = tested on: spontaneously hypertensive rats; test: Antihypertensive effect after oral administration, tail-cuff systolic blood pressure; format: in vivo; conditions: dose 6 mg/kg, reduction in systolic blood pressure from basal values, male spontaneously hypertensive rats; for dSBP (mmHg) 2hr: 2hr after administration; for dSBP (mmHg) 6hr: 6hr after administration
Procedure: Four male spontaneously hypertensive rats (body weight 400-440g) and in which hypertension was confirmed were used. These were obtained from Charles River Japan (Kanagawa, Japan and were maintained in a pathogen free state until used.
A 5% arabic gum aqueous suspension of each sample was administered orally in a dose of 1ml per kg body weight. Systolic blood pressure after administration was measured by an indirect (tail-cuff) method. Antihypertensive effect was shown as a reduction in blood pressure (mmHg) from the basal values.

[3] = tested on: spontaneously hypertensive rats; test: Antihypertensive effect after intravenous bolus injection, tail-cuff systolic blood pressure; format: in vivo; conditions: dose 10 mg/kg, reduction in systolic blood pressure from basal values, male spontaneously hypertensive rats
Procedure: Two male spontaneously hypertensive rats (body weight 400-440g) and in which hypertension was confirmed were used as test animals. These were obtained from Charles River Japan (Kanagawa, Japan) and were maintained in a pathogen free state until used.
An aqueous solution of the derivative prepared in Example 1 above in physiological saline containing 2.5% Nicolle TM and 2.5% ethanol was intravenously administered by bolus injection in a does of 1ml per 1 kg body weight. Systolic blood pressure (SBP) after administration was measured by an indirect (tail-cuff) method. The antihypertensive effect was shown as a reduction in blood pressure (mmHg) from the basal values.

Row | pIC50 [1] | SMILES | dSBP (mmHg) 2hr [2] [mmHg] | dSBP (mmHg) 6hr [2] [mmHg] | dSBP (mmHg) 0.5hr ([3]; 0.5hr after administration) [mmHg] | dSBP (mmHg) 4hr ([3]; 4hr after administration) [mmHg]
1 | 6.70 | NS(=O)(=O)c1ccc(C=CCN2CCC(=C3c4ccccc4C=Cc4ccccc43)CC2)cc1 [Example 1, 1-(4-Aminosulfonylcinnamyl)-4-(5H-dibenzo[a,d]cyclohepten-5-ylidene)piperidine] | -37 | -48 | -83 | -95
2 | 6.60 | NS(=O)(=O)c1ccc(C=CCN2CCC(=C3c4ccccc4CSc4ccccc43)CC2)cc1 [Example 2, 11-[1-(4-Aminosulfonylcinnamyl)-4-piperidinylidene]-6,11-dihydrodibenzo[b,e]thiepin] | -31 | -43 | – | –
